Where a name gives a salt, the structure may show the parent alone. Read-outs that look alike come from different tables or passages of the source. Blank lines part the entries; values can stand above or below the molecule they belong to.
Biological target: T1, LmjIPCS (inositol phosphorylceramide synthase from L. major) (Leishmania major, UniProt E9AFX2)
T1 sequence (E9AFX2 1-338): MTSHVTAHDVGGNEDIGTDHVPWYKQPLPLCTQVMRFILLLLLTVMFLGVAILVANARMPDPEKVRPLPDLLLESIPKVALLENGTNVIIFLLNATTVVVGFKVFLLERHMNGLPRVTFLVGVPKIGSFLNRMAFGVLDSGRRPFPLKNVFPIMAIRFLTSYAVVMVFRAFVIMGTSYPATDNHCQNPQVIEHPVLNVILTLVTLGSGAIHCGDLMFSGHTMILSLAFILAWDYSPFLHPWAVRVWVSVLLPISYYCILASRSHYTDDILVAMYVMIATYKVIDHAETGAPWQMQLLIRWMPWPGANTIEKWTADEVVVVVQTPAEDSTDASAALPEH
Assay: biochemical
Assay type: biochemical
Design: inhibition: dose or concentration left out as unconfirmed
Conditions: for inhibition at 20000 µM: read-out: 20mM inhibition LmjIPCS; for inhibition: read-out: inhibition LmjIPCS

[1] = NINDS set screen, single concentration printed as 20mM
[2] = screening of NINDS set, sheet Screen 1

Molecule: CC[C@@H](C(=O)[C@@H](C)[C@@H](O)[C@H](C)CCc1ccc(C)c(O)c1C(=O)[O-])[C@H]1O[C@](CC)([C@H]2CC[C@](O)(CC)[C@H](C)O2)C[C@@H]1C.[Na+] [LASALOCID SODIUM]
20mM inhibition LmjIPCS [1]: 41%

20mM inhibition LmjIPCS: 51%
Molecule: CC(C)(C)NCC(O)c1ccccc1Cl (stereo not shown) [TULOBUTEROL]

Molecule: CO[C@H]1/C=C/O[C@@]2(C)Oc3c(C)c(O)c4c(O)c(c5c(nc6cc(C)ccn65)c4c3C2=O)NC(=O)/C(C)=C\C=C\[C@H](C)[C@H](O)[C@@H](C)[C@@H](O)[C@@H](C)[C@H](OC(C)=O)[C@@H]1C [RIFAXIMIN]
inhibition at 20000 µM: 6%

inhibition (NINDS set screen): 13%
Molecule: O=C(O)c1ccccc1OP(=O)(O)O [FOSFOSAL]

Molecule: OCc1ccccc1O[C@@H]1O[C@H](CO)[C@@H](O)[C@H](O)[C@H]1O [SALICIN]
inhibition at 20000 µM: 14%

Molecule: Oc1ccc(O)cc1 [HYDROQUINONE]
inhibition at 20000 µM: -2.33%

20mM inhibition LmjIPCS [1]: 57%
Molecule: C[N+](C)(C)CCOC(N)=O [CARBACHOL]

Molecule: COc1cnc(NS(=O)(=O)c2ccc(N)cc2)nc1
inhibition at 20000 µM: 21%

inhibition: 20%
Molecule: Cc1noc(NS(=O)(=O)c2ccc(N)cc2)c1C [SULFISOXAZOLE]

20mM inhibition LmjIPCS: 47%
Molecule: COC(=O)[C@H]1[C@H]2C[C@H]3c4[nH]c5cc(OC)ccc5c4CCN3C[C@H]2C[C@@H](OC(=O)c2cc(OC)c(OC)c(OC)c2)[C@@H]1OC [ISORESERPINE]

Molecule: C=CC1=C(C(=O)O)N2C(=O)[C@@H](NC(=O)/C(=N\O)c3csc(N)n3)[C@H]2SC1
inhibition at 20000 µM: 9%

Molecule: 1R,2S-PHENYLPROPYLAMINE
20mM inhibition LmjIPCS: -2.19%

inhibition: 11%
Molecule: Cc1c(NC(=O)c2cccnc2)c(=O)n(-c2ccccc2)n1C [NIFENAZONE]

Molecule: O=C1C[C@@H]2OCC=C3CN4CC[C@]56c7ccccc7N1[C@H]5[C@H]2[C@H]3C[C@H]46 [STRYCHNINE]
inhibition at 20000 µM: 3%

inhibition [2]: 9%
Molecule: O=C(O)c1cc(O)c2ccc(Cl)cc2n1 [7-CHLOROKYNURENIC ACID]

inhibition (NINDS set screen): 0.419%
Molecule: Cc1c(NC(C)C)c(=O)n(-c2ccccc2)n1C [RAMIFENAZONE]

Molecule: CCCCCC(C)N (stereo not shown) [TUAMINOHEPTANE]
inhibition at 20000 µM: 26%

Molecule: C=C[C@H]1C[N@@]2CC[C@H]1C[C@@H]2[C@@H](O)c1ccnc2ccc(OC)cc12 [QUINIDINE]
20mM inhibition LmjIPCS: 55%

Molecule: CC(Cc1ccc(O)cc1)NCC(O)c1cc(O)cc(O)c1 (stereo not shown) [FENOTEROL]
inhibition at 20000 µM: 15%

Molecule: c1ccc(CC2=NCCN2)cc1 [TOLAZOLINE]
inhibition at 20000 µM: 2.77%

Molecule: O=C(O)c1cc(O)c2c(c1)[C@H]([C@H]1c3cc(C(=O)O)cc(O)c3C(=O)c3c(O[C@@H]4O[C@H](CO)[C@@H](O)[C@H](O)[C@H]4O)cccc31)c1cccc(O[C@@H]3O[C@H](CO)[C@@H](O)[C@H](O)[C@H]3O)c1C2=O [SENNOSIDE A]
20mM inhibition LmjIPCS: 62%

Molecule: C[C@H]1CC[C@]2(NC1)O[C@H]1C[C@H]3[C@@H]4CC[C@H]5C[C@@H](O[C@@H]6O[C@H](CO)[C@H](O[C@@H]7O[C@H](CO)[C@@H](O)[C@H](O[C@@H]8OC[C@@H](O)[C@H](O)[C@H]8O)[C@H]7O[C@@H]7O[C@H](CO)[C@@H](O)[C@H](O)[C@H]7O)[C@H](O)[C@H]6O)CC[C@]5(C)[C@H]4CC[C@]3(C)[C@H]1[C@@H]2C [TOMATINE]
inhibition at 20000 µM: 12%

Molecule: CC(=O)N[C@@H](CS)C(=O)O [ACETYLCYSTEINE]
20mM inhibition LmjIPCS: 53%

inhibition: 30%
Molecule: CCCCNC(=O)NS(=O)(=O)c1ccc(C)cc1 [TOLBUTAMIDE]

Molecule: NC(=O)c1ccc(N)nc1 [6-AMINONICOTINAMIDE]
inhibition at 20000 µM: 7.54%

Molecule: CC[C@H]1OC(=O)[C@H](C)C(=O)[C@H](C)[C@@H](O[C@@H]2O[C@H](C)C[C@H](N(C)C)[C@H]2O)[C@](C)(OC)C[C@@H](C)C(=O)[C@H](C)[C@H]2N(CCCCn3cnc(-c4cccnc4)c3)C(=O)O[C@]12C [TELITHROMYCIN]
inhibition at 20000 µM: 3.66%

inhibition [2]: 2%
Molecule: CCOC(=O)NNc1nncc2ccccc12 [TODRALAZINE]

Molecule: CN1[C@@H]2CC[C@H]1C[C@@H](OC(=O)[C@H](CO)c1ccccc1)C2 [HYOSCYAMINE]
inhibition at 20000 µM: 4%

Molecule: CCC[C@@H]1C[C@@H](C(=O)N[C@@H]([C@H]2O[C@H](SC)[C@H](O)[C@@H](O)[C@H]2O)[C@@H](C)O)N(C)C1 [LINCOMYCIN]
inhibition at 20000 µM: 8.53%

Molecule: OCCN1C[C@H](O)[C@@H](O)[C@H](O)[C@H]1CO [MIGLITOL]
inhibition at 20000 µM: -0.821%

inhibition [2]: 8%
Molecule: C[C@](N)(Cc1ccc(O)c(O)c1)C(=O)O [METHYLDOPA]

inhibition [2]: 9%
Molecule: O=C(O)c1cc2cc(Cl)ccc2[nH]1 [5-CHLOROINDOLE-2-CARBOXYLIC ACID]

20mM inhibition LmjIPCS [1]: 38%
Molecule: O=C(O)CCCCCCCC(=O)O [AZELAIC ACID]

Molecule: O=C(O)c1cc(-c2ccc(F)cc2F)ccc1O [DIFLUNISAL]
inhibition at 20000 µM: -4.4%

inhibition [2]: 5.71%
Molecule: CC[C@H]1OC(=O)[C@H](C)[C@@H](O[C@H]2C[C@@](C)(OC)[C@@H](O)[C@H](C)O2)[C@H](C)[C@@H](O[C@@H]2O[C@H](C)C[C@H](N(C)C)[C@H]2O)[C@](C)(OC)C[C@@H](C)C(=O)[C@H](C)[C@@H](O)[C@]1(C)O [CLARITHROMYCIN]

inhibition (NINDS set screen): -2.28%
Molecule: O=c1[nH]c(=O)n([C@H]2C[C@H](O)[C@@H](CO)O2)cc1F [FLOXURIDINE]

20mM inhibition LmjIPCS: 42%
Molecule: Cc1ccc(/C(=C\CN2CCCC2)c2ccccn2)cc1 [TRIPROLIDINE]

Molecule: COc1ccc2cc1Oc1ccc(cc1)C[C@H]1c3c(cc4c(c3Oc3cc5c(cc3OC)CCN(C)[C@@H]5C2)OCO4)CCN1C [CEPHARANTHINE]
20mM inhibition LmjIPCS: 59%

Molecule: Cn1nnnc1SCC1=C(C(=O)O)N2C(=O)[C@@H](NC(=O)[C@H](O)c3ccccc3)[C@H]2SC1 [CEFAMANDOLE]
inhibition at 20000 µM: 10%

20mM inhibition LmjIPCS (single concentration 20mM as printed, screening of NINDS set, sheet Screen 1): 3.28%
Molecule: NCCCS(=O)(=O)O [3-AMINOPROPANESULPHONIC ACID]

Molecule: CCc1cc(C(N)=S)ccn1 [ETHIONAMIDE]
inhibition at 20000 µM: -5.39%

inhibition [2]: 3%
Molecule: CCOC(=O)C(Cc1ccc(O)cc1)NC(C)=O (stereo not shown) [ACETYL TYROSINE ETHYL ESTER]

Molecule: C=C(C)[C@@H]1CC=C(C(=O)O)CC1 [PERILLIC ACID (-)]
inhibition at 20000 µM: 12%

20mM inhibition LmjIPCS [1]: 65%
Molecule: N=C(N)NC(=O)c1nc(Cl)c(N2CCCCCC2)nc1N [N,N-HEXAMETHYLENEAMILORIDE]

Molecule: CC(C)NCC(O)c1cc(O)cc(O)c1 (stereo not shown) [METAPROTERENOL]
inhibition at 20000 µM: 7%

inhibition: 2.58%
Molecule: CC(C)Cc1ccc(C(C)C(=O)O)cc1 (stereo not shown) [IBUPROFEN]

inhibition (NINDS set screen): 20%
Molecule: O=C(c1ccccc1)c1ccc2n1CCC2C(=O)O (stereo not shown) [KETOROLAC]

Molecule: CNC(=N)NCCC[C@H](N)C(=O)O [TARGININE]
20mM inhibition LmjIPCS: -2%

Molecule: CCN(CC)CC(=O)Nc1c(C)cccc1C [LIDOCAINE]
inhibition at 20000 µM: 2.47%

20mM inhibition LmjIPCS [1]: 54%
Molecule: CC(CCc1ccccc1)NC(C)C(O)c1ccc(O)cc1 (stereo not shown) [NYLIDRIN HYDROCHLORIDE]

inhibition (NINDS set screen): 14%
Molecule: O=C(O)c1cc(O)c2c(c1)C(=O)c1cc(O)cc(O)c1C2=O [EMODIC ACID]

Molecule: COc1cc([C@@H]2c3cc4c(cc3[C@H](O)[C@H]3COC(=O)[C@@H]23)OCO4)cc(OC)c1OC [PICROPODOPHYLLOTOXIN]
inhibition at 20000 µM: 7.47%

Molecule: O=C(Cc1cccs1)N[C@@H]1C(=O)N2C(C(=O)[O-])=C(C[n+]3ccccc3)CS[C@H]12 [CEPHALORIDINE]
inhibition at 20000 µM: 22%

Molecule: Cc1onc(-c2c(Cl)cccc2Cl)c1C(=O)N[C@@H]1C(=O)N2[C@@H]1SC(C)(C)[C@@H]2C(=O)O [DICLOXACILLIN]
inhibition at 20000 µM: 2.55%

Molecule: CC1=C(O)C(=O)C=C2C1=CC=C1[C@@]2(C)CC[C@@]2(C)[C@@H]3C[C@](C)(C(=O)O)CC[C@]3(C)CC[C@]12C [CELASTROL]
20mM inhibition LmjIPCS: 54%

inhibition: 6%
Molecule: NCCCC[C@H](N[C@@H](CCc1ccccc1)C(=O)O)C(=O)N1CCC[C@H]1C(=O)O [LISINOPRIL]

Molecule: Cc1ccccc1N1C(=O)c2cc(S(N)(=O)=O)c(Cl)cc2NC1C (stereo not shown) [METOLAZONE]
20mM inhibition LmjIPCS: 50%

inhibition [2]: 5.35%
Molecule: CCCCN1CCCCC1C(=O)Nc1c(C)cccc1C (stereo not shown) [BUPIVACAINE]

20mM inhibition LmjIPCS [1]: 55%
Molecule: CCCNC(=O)NS(=O)(=O)c1ccc(Cl)cc1 [CHLORPROPAMIDE]

20mM inhibition LmjIPCS [1]: 67%
Molecule: C#CCCCCCCCCCCCC(=O)CC(O)COC(C)=O (stereo not shown) [AVOCADYNONE ACETATE]

Molecule: Nc1nc(N)c2nc(CNc3ccc(C(=O)N[C@@H](CCC(=O)O)C(=O)O)cc3)cnc2n1 [AMINOPTERIN]
inhibition at 20000 µM: 0.247%

inhibition (NINDS set screen): 23%
Molecule: Nc1ccc(S(=O)(=O)Nc2ccc(Cl)nn2)cc1 [SULFACHLORPYRIDAZINE]

20mM inhibition LmjIPCS [1]: 58%
Molecule: CC[C@H]1CN2CC[C@H]1C[C@@H]2[C@@H](O)c1ccnc2ccc(OC)cc12 [HYDROQUINIDINE]

inhibition (NINDS set screen): 19%
Molecule: CC[C@H]1OC(=O)[C@H](C)[C@@H](O[C@H]2C[C@@](C)(OC)[C@@H](O)[C@H](C)O2)[C@H](C)[C@@H](O[C@@H]2O[C@H](C)C[C@H](N(C)C)[C@H]2O)[C@](C)(O)C[C@@H](C)CN(C)[C@H](C)[C@@H](O)[C@]1(C)O [AZITHROMYCIN]

inhibition [2]: 9%
Molecule: CCC(C(N)=O)c1ccccc1 (stereo not shown) [FENBUTYRAMIDE]

Molecule: N[C@H]1C(O)O[C@H](CO)[C@@H](O)[C@@H]1O (stereo partly shown) [GLUCOSAMINE]
inhibition at 20000 µM: 10%

Molecule: O=C(/C=C/c1ccc(O)c(O)c1)OCCc1ccccc1 [PHENETHYL CAFFEATE (CAPE)]
20mM inhibition LmjIPCS: 39%

Molecule: CC(C)=CCC1=C(O)C(=O)c2ccccc2C1=O [LAPACHOL]
inhibition at 20000 µM: 5.55%

inhibition [2]: 8%
Molecule: CC1CC(OC(=O)C(O)c2ccccc2)CC(C)(C)N1C (stereo not shown) [EUCATROPINE]

inhibition [2]: 2.18%
Molecule: COc1cc(OC)c2ccc(=O)oc2c1 [CITROPTEN]

Molecule: CRESOL
20mM inhibition LmjIPCS: 53%

20mM inhibition LmjIPCS: 38%
Molecule: CCOc1ccc(NC(C)=O)cc1 [PHENACETIN]

inhibition [2]: 6%
Molecule: C1N2CN3CN1CN(C2)C3 [METHENAMINE]

Reference: publication PMC7802075 (ACS Infectious Diseases, 2020)
